For one compound, Km results are on record in paper PMC3064516 (Nature structural & molecular biology, 2011).

In the experiment the target is Autotaxin (ATX, ENPP2) (Homo sapiens, UniProt Q13822). The experiment in a line: nucleotide phosphodiesterase assay, Km. The class given is biochemical.

In general, Km refers to the substrate concentration at which the rate is half of its maximum. Regarding `Cc1cn([C@H]2C[C@H](O)[C@@H](COP(=O)(O)Oc3ccc([N+](=O)[O-])cc3)O2)c(=O)[nH]c1=O` [pNP-TMP, p-nitrophenyl thymidine 5′-monophosphate], the Km was found to be 1930 ± 200 µM.
